# Source: ChEMBL document CHEMBL1201862, “PubChem BioAssay data set” (2004)
# Calls of active or inactive are those of the source.
# Key:
# [1] = target: T1, Alkaline phosphatase, tissue-nonspecific isozyme (Homo sapiens, UniProt P05186)
# T1 sequence (P05186 whole entry): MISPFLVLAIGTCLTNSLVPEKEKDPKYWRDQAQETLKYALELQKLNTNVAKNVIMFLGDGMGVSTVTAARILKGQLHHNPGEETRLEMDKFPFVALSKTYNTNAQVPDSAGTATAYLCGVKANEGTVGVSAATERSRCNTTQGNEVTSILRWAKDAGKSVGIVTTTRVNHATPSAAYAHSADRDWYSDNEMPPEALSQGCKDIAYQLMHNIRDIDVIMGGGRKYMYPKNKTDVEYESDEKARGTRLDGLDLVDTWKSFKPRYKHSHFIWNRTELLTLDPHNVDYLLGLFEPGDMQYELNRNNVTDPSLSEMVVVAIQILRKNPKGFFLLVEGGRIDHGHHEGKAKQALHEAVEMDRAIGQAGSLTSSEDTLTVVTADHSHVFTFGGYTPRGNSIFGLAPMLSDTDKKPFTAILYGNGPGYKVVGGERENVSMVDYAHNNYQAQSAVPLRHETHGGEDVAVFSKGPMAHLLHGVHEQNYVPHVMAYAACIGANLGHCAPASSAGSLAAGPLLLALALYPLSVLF
# [2] = target: Voltage-dependent T-type calcium channel subunit alpha-1H (Homo sapiens, UniProt O95180); format: functional;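 also: channel activity triggered by adding a high calcium stimulation buffer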
# [3] = target: Acyl-homoserine lactone acylase PvdQ (Pseudomonas aeruginosa (strain LESB58), UniProt Q9I194); assay: P. aeruginosa PvdQ acylase inhibitors, dose response, biochemical, fluorescence, plate reader and imaging, cherry-picks (AID 493231)
# Acyl-homoserine lactone acylase PvdQ, sequence (Q9I194 24-193 limits assumed): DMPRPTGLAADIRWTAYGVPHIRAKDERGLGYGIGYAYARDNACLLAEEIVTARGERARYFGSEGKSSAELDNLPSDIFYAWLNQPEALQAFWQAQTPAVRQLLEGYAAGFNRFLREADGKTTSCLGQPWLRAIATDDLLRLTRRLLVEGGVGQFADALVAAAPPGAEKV
# Acyl-homoserine lactone acylase PvdQ, sequence (Q9I194 217-762 limits assumed): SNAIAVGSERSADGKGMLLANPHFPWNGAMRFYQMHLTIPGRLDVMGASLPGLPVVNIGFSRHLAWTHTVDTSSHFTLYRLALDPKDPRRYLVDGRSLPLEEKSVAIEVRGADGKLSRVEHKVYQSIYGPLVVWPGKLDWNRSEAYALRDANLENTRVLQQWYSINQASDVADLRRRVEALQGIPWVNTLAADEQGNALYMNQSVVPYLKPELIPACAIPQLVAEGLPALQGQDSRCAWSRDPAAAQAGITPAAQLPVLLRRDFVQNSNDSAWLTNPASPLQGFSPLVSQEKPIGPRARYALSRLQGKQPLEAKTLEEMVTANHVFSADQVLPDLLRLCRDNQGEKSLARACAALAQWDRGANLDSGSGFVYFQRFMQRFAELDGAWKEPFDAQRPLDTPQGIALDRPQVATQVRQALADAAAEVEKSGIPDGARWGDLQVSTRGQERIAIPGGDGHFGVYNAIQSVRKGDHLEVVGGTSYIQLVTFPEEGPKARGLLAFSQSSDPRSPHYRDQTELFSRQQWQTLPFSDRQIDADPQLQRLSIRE
# X-box-binding protein 1 = X-box-binding protein 1 (Homo sapiens, UniProt P17861); format: functional, Cricetulus griseus;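 also: confirmatory dose-response counter-screen serving a CHOP assay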
# X-box-binding protein 1, sequence (P17861 whole entry): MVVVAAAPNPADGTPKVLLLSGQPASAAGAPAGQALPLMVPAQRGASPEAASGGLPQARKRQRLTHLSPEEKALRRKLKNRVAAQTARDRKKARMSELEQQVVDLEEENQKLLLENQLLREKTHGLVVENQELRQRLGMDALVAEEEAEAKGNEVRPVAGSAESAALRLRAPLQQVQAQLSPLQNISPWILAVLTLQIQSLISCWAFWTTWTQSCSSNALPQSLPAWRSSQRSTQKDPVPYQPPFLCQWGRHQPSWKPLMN
# [4] = growth suppression of beta-catenin-knockout colon cells, dose response, cell-based, HCT116, human colon tumor (AID 1045); format: functional;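 also: HCT116 colon tumor cells with beta catenin knocked out; cells exposed to compound for 60 hours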
# [5] = growth suppression of PTEN-null colon cells, dose response, cell-based, HCT116 PTEN knockout (AID 1047); format: functional;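 also: HCT116 colon tumor cells with PTEN knocked out; cells exposed to compound for 60 hours before readout; potency for loss of cell viability measured by luminescence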
# [6] = Counterscreen for IDE inhibitors: Luminescence-based cell-based high throughput dose response assay to identify compounds that are cytotoxic to HEK cells. [Related pubchem assays: 434962 (Primary screen (IDE inhibitors in singlicate)), 449730 (Counterscreen (Cytotoxicity in triplicate)), 435028 (Confirmation (IDE inhibitors in triplicate)) …; format: functional; settings: HEK293
# [7] = target: T2, Zinc finger protein mex-5 (Caenorhabditis elegans, UniProt Q9XUB2); assay: MEX-5/TCR-2 RNA interaction inhibitors, dose response, biochemical, C. elegans, fluorescence polarization (AID 1960)
# T2 sequence (Q9XUB2 whole entry): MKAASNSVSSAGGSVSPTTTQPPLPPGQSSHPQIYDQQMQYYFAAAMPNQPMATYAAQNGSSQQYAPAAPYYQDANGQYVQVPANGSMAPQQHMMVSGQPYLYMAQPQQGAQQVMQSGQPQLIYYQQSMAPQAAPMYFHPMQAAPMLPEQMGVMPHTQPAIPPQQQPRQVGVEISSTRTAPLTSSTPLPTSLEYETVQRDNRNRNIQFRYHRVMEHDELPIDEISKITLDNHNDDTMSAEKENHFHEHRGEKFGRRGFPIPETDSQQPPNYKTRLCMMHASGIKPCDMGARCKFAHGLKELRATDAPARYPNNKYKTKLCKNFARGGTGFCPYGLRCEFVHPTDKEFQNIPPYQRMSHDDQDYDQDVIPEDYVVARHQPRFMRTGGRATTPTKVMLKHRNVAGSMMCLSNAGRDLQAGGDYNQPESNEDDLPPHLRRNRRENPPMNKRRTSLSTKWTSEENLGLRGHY
# [8] = target: T3, RNA-binding protein pos-1 (Caenorhabditis elegans, UniProt G5EF15); assay: inhibitors of POS-1/mex-3 RNA binding, dose response, biochemical, fluorescence polarization (AID 1964);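 also: purified POS-1 fused to maltose binding protein made in E. coli; potency of compounds blocking POS-1 binding to fluorescent RNA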
# T3 sequence (G5EF15 whole entry): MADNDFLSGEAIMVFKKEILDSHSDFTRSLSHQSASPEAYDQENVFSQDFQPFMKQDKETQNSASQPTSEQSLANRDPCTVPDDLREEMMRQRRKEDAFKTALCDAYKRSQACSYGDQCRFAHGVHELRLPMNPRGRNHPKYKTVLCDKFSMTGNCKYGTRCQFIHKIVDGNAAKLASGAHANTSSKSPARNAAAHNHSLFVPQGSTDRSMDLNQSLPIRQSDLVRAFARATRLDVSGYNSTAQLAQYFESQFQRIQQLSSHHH
# Insulin-degrading enzyme = target: T4, Insulin-degrading enzyme (Homo sapiens, UniProt P14735); assay: Dose Response: Fluorescence polarization-based cell-based high throughput dose response assay for inhibitors of insulin-degrading enzyme (IDE). [Related pubchem assays: 434962 (Primary screen (IDE inhibitors in singlicate)), 449730 (Counterscreen (Cytotoxicity in triplicate)), 435028 (Confirmation (IDE inhibitors in triplicate)), 434984 (Summary …; format: functional
# T4 sequence (P14735 whole entry): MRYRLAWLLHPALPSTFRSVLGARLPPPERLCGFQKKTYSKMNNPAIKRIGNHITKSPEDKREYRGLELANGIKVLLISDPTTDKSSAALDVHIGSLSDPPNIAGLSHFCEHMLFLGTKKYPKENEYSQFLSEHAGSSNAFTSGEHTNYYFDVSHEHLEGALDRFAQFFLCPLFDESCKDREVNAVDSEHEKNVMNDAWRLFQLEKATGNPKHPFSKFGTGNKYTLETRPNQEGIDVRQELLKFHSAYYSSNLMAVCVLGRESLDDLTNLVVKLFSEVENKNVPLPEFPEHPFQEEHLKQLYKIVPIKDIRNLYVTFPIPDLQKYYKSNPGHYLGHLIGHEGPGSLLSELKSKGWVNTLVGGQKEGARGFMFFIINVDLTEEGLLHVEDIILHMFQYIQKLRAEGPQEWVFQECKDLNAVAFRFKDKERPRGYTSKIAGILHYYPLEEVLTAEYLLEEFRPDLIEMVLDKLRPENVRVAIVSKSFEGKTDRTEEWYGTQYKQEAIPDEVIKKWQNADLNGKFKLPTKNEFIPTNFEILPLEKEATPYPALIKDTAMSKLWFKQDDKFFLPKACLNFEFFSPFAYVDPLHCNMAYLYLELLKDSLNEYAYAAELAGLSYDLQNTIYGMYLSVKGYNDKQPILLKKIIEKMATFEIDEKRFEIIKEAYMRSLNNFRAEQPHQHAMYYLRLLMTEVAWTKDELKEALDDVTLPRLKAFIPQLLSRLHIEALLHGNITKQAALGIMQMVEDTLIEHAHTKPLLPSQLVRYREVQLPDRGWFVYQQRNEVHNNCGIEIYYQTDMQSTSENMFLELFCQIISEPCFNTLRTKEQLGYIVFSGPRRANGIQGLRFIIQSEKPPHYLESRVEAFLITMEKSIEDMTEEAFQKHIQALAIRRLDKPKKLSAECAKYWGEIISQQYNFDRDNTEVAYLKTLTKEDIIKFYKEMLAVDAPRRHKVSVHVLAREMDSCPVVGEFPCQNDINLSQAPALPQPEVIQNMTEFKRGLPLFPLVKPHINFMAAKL
# [9] = HEK293 cell cytotoxicity, dose response, cytotoxicity control, plate reader, cherry-picked samples (AID 743446); format: functional, cell-based
# [10] = MC4R antagonists, dose response, counter-screen for LGR2 antagonist project, cell-based, plate reader, cherry pick (AID 743444); format: functional;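 also: transfected HEK 293 cells stimulated with alpha-MSH peptide; potency of inhibitors of the alpha-MSH evoked signal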
# [11] = A549 cell cytotoxicity, dose response, cytotoxicity control, plate reader, cherry-pick, antagonist series (AID 743412); format: functional, cell-based
# [12] = target: T5, Microphthalmia-associated transcription factor (Homo sapiens, UniProt O75030); assay: TRPM1 promoter luciferase signal decrease, dose response, MITF inhibitor project, cell-based, SK-MEL-5, cherry-picked, set 3 (AID 493073); format: functional
# T5 sequence (O75030 whole entry): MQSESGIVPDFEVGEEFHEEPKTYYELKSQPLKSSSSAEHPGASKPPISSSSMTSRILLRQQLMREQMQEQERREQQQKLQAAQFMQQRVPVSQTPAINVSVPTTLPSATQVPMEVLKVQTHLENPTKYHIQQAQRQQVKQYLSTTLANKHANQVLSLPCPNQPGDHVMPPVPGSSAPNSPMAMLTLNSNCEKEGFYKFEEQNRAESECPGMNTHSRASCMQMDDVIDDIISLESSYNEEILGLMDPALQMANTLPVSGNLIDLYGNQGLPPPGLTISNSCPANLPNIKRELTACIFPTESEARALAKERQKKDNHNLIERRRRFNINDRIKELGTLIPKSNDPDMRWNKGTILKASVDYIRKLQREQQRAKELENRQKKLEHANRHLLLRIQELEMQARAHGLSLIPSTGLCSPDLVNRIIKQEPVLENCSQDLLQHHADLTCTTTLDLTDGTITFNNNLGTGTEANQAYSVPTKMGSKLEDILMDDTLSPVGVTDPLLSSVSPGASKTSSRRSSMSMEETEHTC
# [13] = HepG2 cell cytotoxicity, dose response, cytotoxicity control, plate reader, cherry-pick, antagonist series (AID 743416); format: functional, cell-based
# [14] = LGR2 antagonists, dose response, cell-based, HEK293, CRE-luciferase reporter, cherry pick, set 2 (AID 743343); format: functional;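 also: transfected cells were stimulated with diluted bursicon conditioned medium after compound addition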
# [15] = target: T6, Voltage-gated N-type calcium channel alpha-1B subunit/Amyloid beta A4 precursor protein-binding family A member 1 (Homo sapiens, UniProt Q00975+Q02410); assay: disruptors of Mint-PDZ/N-type channel peptide interaction – biochemical, HTRF, set 2, SAR follow-up (AID 434980); format: functional
# T6 sequence (Q00975 whole entry): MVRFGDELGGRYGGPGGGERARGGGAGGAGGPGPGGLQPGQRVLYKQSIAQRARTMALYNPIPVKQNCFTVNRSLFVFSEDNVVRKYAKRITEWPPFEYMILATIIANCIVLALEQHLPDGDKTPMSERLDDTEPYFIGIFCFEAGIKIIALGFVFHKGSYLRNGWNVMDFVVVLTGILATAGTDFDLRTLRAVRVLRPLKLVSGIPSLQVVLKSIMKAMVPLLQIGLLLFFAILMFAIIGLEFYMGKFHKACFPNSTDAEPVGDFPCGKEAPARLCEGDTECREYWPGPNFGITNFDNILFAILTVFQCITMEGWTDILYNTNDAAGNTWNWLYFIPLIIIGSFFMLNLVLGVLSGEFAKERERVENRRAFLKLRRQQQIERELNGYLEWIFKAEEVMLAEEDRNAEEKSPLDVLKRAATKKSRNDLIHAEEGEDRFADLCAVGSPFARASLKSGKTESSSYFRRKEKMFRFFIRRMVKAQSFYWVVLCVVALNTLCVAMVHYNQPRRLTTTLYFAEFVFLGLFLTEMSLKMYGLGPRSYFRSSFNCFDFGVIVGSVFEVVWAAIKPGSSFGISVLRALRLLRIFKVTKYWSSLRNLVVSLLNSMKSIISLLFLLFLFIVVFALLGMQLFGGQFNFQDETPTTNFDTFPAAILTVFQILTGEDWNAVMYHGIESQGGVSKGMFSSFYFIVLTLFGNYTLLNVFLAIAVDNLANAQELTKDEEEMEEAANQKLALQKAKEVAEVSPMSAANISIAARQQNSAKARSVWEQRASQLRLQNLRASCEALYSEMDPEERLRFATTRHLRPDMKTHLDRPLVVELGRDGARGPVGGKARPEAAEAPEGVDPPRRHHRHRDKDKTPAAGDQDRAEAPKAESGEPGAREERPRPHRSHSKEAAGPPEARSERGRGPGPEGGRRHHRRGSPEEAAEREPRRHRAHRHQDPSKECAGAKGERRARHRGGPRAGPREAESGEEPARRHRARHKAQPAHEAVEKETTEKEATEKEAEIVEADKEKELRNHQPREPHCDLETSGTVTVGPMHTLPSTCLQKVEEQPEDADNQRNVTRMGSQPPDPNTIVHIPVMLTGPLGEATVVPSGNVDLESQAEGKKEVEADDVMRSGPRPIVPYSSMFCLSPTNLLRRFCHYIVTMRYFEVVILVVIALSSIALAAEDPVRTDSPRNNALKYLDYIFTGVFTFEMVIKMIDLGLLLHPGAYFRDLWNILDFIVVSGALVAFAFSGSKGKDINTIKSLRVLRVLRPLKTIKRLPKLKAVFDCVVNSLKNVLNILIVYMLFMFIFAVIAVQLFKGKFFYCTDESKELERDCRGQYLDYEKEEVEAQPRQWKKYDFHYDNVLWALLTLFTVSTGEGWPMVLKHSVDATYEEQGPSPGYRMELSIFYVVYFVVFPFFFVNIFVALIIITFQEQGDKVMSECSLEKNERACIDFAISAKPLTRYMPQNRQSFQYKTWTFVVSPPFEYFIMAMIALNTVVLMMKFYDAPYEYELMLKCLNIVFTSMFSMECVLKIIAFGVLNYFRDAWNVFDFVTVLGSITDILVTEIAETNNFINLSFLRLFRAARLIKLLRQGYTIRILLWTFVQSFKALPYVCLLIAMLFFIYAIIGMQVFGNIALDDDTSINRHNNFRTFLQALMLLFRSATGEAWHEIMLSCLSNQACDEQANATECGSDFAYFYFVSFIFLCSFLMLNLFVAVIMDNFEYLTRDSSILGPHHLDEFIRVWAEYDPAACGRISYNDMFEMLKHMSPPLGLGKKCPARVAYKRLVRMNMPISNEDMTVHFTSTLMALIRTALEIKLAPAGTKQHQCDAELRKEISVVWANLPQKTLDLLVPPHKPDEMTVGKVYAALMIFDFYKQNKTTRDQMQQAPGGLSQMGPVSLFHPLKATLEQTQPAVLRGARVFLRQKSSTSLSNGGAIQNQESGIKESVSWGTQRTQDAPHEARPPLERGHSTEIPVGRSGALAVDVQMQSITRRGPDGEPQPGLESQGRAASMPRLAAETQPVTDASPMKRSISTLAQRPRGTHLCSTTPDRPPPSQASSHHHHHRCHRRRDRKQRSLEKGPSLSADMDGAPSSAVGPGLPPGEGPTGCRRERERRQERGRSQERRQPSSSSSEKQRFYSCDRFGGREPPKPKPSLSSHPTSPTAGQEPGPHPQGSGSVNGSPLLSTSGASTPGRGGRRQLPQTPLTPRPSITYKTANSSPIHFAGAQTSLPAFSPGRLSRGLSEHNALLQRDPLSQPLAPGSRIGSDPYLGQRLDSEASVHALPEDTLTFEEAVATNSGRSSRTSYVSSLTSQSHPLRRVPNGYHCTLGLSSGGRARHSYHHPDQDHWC
# T6 sequence (Q02410 whole entry): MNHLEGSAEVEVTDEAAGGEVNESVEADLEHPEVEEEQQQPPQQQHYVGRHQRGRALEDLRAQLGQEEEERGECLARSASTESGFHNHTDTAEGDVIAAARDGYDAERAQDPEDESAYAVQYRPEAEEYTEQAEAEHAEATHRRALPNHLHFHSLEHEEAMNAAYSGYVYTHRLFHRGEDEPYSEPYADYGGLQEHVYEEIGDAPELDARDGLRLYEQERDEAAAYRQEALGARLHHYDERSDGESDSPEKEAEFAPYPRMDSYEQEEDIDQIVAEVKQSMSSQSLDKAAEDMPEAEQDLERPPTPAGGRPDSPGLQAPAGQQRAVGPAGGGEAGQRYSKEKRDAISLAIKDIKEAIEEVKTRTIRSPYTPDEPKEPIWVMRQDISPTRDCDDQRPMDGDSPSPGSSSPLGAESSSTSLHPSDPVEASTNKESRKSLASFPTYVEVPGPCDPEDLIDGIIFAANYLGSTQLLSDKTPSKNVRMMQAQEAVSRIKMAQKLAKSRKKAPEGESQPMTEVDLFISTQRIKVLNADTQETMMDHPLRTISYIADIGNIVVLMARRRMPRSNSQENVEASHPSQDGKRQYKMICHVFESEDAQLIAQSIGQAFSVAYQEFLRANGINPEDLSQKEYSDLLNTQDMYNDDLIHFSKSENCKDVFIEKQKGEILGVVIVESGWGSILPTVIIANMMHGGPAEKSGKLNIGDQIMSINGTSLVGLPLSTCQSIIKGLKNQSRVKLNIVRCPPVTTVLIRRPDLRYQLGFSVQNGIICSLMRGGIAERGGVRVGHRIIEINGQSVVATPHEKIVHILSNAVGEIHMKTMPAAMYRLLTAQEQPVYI
# [16] = target: T6, Voltage-gated N-type calcium channel alpha-1B subunit/Amyloid beta A4 precursor protein-binding family A member 1; assay: disruptors of Mint-PDZ/N-type channel peptide interaction – biochemical, HTRF, SAR follow-up (AID 2489); format: functional
# [17] = target: C-C chemokine receptor type 6 (Homo sapiens, UniProt P51684); assay: CCR6 receptor antagonists, dose response, cell-based, luminescent beta-arrestin readout (AID 504728); format: functional
# C-C chemokine receptor type 6, sequence (P51684 whole entry): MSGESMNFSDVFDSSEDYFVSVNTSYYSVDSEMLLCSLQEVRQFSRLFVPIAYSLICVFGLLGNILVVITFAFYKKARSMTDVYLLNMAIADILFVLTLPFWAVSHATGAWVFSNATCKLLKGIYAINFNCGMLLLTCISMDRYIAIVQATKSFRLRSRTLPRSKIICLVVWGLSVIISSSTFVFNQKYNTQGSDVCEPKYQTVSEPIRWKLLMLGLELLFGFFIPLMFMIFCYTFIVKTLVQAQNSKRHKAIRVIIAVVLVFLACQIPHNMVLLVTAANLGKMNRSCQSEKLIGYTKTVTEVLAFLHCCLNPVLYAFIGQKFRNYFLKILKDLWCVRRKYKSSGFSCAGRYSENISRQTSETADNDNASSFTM
# Beta-galactosidase = Beta-galactosidase (Escherichia coli, UniProt Q8VNN2); assay: beta-galactosidase enzyme inhibitors and activators, dose response, artefact control for CCR6 antagonist project, biochemical, E. coli enzyme, set 3 (AID 504712); format: functional
# [18] = target: T7, Mannose-6-phosphate isomerase (Homo sapiens, UniProt P34949); assay: human PMI inhibitors, high substrate, primary screen, biochemical, fluorescence intensity, high mannose 6-phosphate (AID 1220)
# T7 sequence (P34949 whole entry): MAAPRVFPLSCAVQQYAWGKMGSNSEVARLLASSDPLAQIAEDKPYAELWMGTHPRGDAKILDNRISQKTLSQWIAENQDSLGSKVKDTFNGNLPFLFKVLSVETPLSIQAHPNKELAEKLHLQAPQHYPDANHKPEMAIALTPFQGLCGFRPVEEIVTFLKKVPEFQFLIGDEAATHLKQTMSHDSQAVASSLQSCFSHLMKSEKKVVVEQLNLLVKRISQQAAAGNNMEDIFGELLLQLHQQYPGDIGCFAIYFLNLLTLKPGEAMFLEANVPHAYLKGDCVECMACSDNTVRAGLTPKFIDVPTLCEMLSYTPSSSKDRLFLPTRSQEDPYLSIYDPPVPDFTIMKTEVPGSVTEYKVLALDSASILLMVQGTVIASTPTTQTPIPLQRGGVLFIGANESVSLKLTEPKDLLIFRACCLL
# [19] = Luminescence-based cell-based high throughput dose response assay to identify activators of the DAF-12 from the parasite S. stercoralis (ssDAF-12).; format: functional
# [20] = target: T8, Oxysterols receptor LXR-beta (Homo sapiens, UniProt P55055); format: functional, cell-based;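 also: Cell-based luminescence dose-response assay of agonist activity at LXR, run as a confirmatory counterscreen to a daf-12 agonist screen; agonist potency from rising luciferase signal of a Gal4-LXR reporter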
# T8 sequence (P55055 whole entry): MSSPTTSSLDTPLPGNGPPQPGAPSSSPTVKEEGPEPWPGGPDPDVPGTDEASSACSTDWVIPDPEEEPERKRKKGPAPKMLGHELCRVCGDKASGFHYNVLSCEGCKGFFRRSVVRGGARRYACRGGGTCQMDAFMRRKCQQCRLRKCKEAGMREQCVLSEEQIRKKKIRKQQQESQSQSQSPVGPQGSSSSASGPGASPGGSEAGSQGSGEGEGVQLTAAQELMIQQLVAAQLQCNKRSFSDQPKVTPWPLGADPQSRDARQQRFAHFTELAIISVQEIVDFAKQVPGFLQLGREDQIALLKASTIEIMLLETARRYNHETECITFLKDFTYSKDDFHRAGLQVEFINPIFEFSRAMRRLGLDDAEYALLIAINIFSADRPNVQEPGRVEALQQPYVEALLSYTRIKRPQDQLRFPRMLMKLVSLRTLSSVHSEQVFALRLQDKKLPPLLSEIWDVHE
# [21] = target: T8, Oxysterols receptor LXR-beta; assay: LXR agonists, Gal4 luciferase reporter, dose response, counter-screen for ssDAF-12 agonist project, cell-based, luminescence, HEK293, S. stercoralis campaign (AID 720737); format: functional; settings: read-out: IC50 (the source's name)
structure (smiles),measurement,setting,value
COc1ccc(OCC(=O)Nc2ccc3oc(-c4ccncc4)nc3c2)cc1,EC50,[1],> 100 µM (not active)
CCOc1ccccc1OCCOc1ccccc1OC(C)C,EC50,[2],5.52 µM (active)
Cc1ccc(C(C#N)c2ccc(Cl)nn2)cc1 (stereo not given),AC50,[3],1.6 µM (active)
Cc1cc2c(cc1C)CSC(c1ccccc1O)SC2,Absolute IC50 (XBP1),X-box-binding protein 1,< 10 µM
COc1ccc(C(CCNCc2ccc(F)cc2)c2ccc(F)cc2)cc1 (stereo not given),EC50,[4],7.18 µM (active)
same,Absolute IC50 (XBP1),X-box-binding protein 1,10 µM
same,EC50,[5],9.32 µM (active)
O=C(C1=NN(c2ccccc2)C2C(=O)N(c3ccccc3Cl)C(=O)C12)c1ccccc1 (stereo not given),IC50,[6],> 55.7 µM (not active)
same,EC50,[7],> 300 µM (inconclusive)
same,EC50,[8],> 300 µM (not active)
same,IC50,Insulin-degrading enzyme,> 6.21 µM (active)
CCOc1ccc(NC(=O)c2ccccn2)cc1,AC50,[9],> 52 µM (inactive)
same,AC50,[3],> 100 µM (inactive)
same,AC50,[10],1.23 µM (active)
same,AC50,[11],43.4 µM (active)
same,AC50,[12],4.4 µM (active)
same,AC50,[13],> 52 µM (inactive)
same,AC50,[14],0.999 µM (active)
O=C(NCCCc1ccccc1)c1cc(-c2ccco2)nc2ccccc12,IC50,[15],44.7 µM (active)
same,IC50,[16],> 56.8 µM (inactive)
N#CC(=C1C=CC(=NO)C(Cl)=C1)c1ccc(Cl)cc1,IC50,[17],> 66.6 µM (inactive)
same,IC50,Beta-galactosidase,> 66.6 µM (inactive)
C/C(=N\O)C(=O)C(CN1CCCCC1)CN1CCCCC1,IC50,[17],> 66.6 µM (inactive)
same,IC50,Beta-galactosidase,> 66.6 µM (inactive)
same,IC50,[18],> 50 µM (not active)
Oc1cccc(/C=N/Nc2cccc3cccnc23)c1,IC50,[19],> 67.5 µM (inactive)
same,EC50,[20],> 67.5 µM (inactive)
same,EC50,[1],> 100 µM (not active)
same,EC50,cells,> 67.5 µM (inactive)
same,EC50,[21],> 67.5 µM (inactive)
